Values of other authors, collected in patent US11685721B2, “Human plasma kallikrein inhibitors” (BioCryst Pharmaceuticals, Inc., priority 2014, dated 2023).

Tested on: patients with hereditary angioedema (HAE)

Compound | treating HAE (hereditary angioedema) | edema (patients with hereditary angioedema (HAE))
NC(N)=NCCC[C@@H](N)C(=O)N[C@@H](CCCN=C(N)N)C(=O)N1CCC[C@H]1C(=O)N1C[C@H](O)C[C@H]1C(=O)NCC(=O)N[C@@H](Cc1cccs1)C(=O)N[C@@H](CO)C(=O)N1Cc2ccccc2C[C@@H]1C(=O)N1[C@H](C(=O)N[C@@H](CCCN=C(N)N)C(=O)O)C[C@@H]2CCCC[C@@H]21 [Icatibant] | effective | 
ecallantide [DX-88] |  | alleviates edema
